Results reported in paper PMC3351969 (European Journal of Medical Research, 2009).

What was measured:
[1] = tested on: cytochrome p450 3A4 (CYP3A4); assay: monoethylglycinexylidide; format: in vivo, human
[2] = indocyanine green clearance; format: in vivo, human; conditions: HIV-patients, before and 6 months after initiation of HAART

SMILES | MEGX test ([1]; HIV-patients treated with various ART combinations, p = 0.23 vs healthy controls) [µg/L] | MEGX test ([1]; healthy controls without medication) [µg/L] | indocyanine green clearance in relation to anti-retroviral regimens [2]
CCNCC(=O)Nc1c(C)cccc1C [MEGX, monoethylglycinexylidide] | 49.9 ± 25.48 | 66.29 ± 38.55 | –
CC1(C)C(/C=C/C=C/C=C/C=C2\N(CCCCS(=O)(=O)O)c3ccc4ccccc4c3C2(C)C)=[N+](CCCCS(=O)(=O)[O-])c2ccc3ccccc3c21 [indocyanine green] | – | – | no correlation could be found
